# Assay results published in paper PMC11062899, “De novo development of small cyclic peptides that are orally bioavailable” (Nature Chemical Biology, 2023).
# pIC50, pKi: −log10 of the molar value. “And” between values parts separate entries of the source, which are not always exact repeats. Equal values may be shown once. Read-outs that look alike come from different tables or passages of the source.
# Key:
# human α-thrombin = human α-thrombin (Homo sapiens, UniProt P00734); experiment: Protease inhibition, Ki for human α-thrombin (fluorogenic substrate Z-Gly-Gly-Arg-AMC); assay type: biochemical; details: for Human alpha thrombin inhibition, slope normalized to DMSO: replicates R1-R3
# Protocol: (§1) The inhibition constants (Ki) of cyclic peptides were calculated by measuring thrombin inhibition in the presence of different concentrations of the cyclic peptides. […] Human α-thrombin (Molecular Innovations) and rat α-thrombin (Molecular Innovations) were used at final concentrations of 2 nM and 3 nM, respectively, and fluorogenic substrate (Z-Gly-Gly-Arg-AMC, Bachem) was used at a concentration of 50 μM. Enzymatic activity was determined by measuring fluorescent gain on a Tecan Infinite M200 Pro microplate reader (excitation: 360 nm, emission: 465 nm) or a PHERAstar FSX microplate reader (excitation: 380 nm, emission: 440 nm) for 30 min at 25 °C with a fluorescent readout every 3 min. The two instruments were controlled with Tecan Infinite M200 Pro instrument software (iControl, version 1.12) and PHERAstar FSX software (version 5.70, edition 8), respectively. Protease inhibition was calculated by comparing the enzymatic activity to a control without cyclic peptide.
# (§2) Half maximal inhibitory concentration (IC50) values were determined using a four-parameter logistic regression model in GraphPad Prism 9 to fit sigmoidal curves to the acquired data points according to equation (2) below.2 y=b+a−b/1+10^(logIC50−x)p where a and b represent the measured inhibition maximum and minimum, respectively; x is the logarithm of peptide concentration; y is the thrombin activity compared to a control without the cyclic peptide; and p is the Hill coefficient.
# (§3) Ki values were calculated using the IC50 and the Cheng–Prusoff equation (equation (3)).3 Ki=IC50/1+S0/Km where Km is the Michaelis–Menten constant of the enzyme for the substrate used in the assay, and [S]0 is the initial substrate concentration.
# rat α-thrombin = molecular target: T1, rat α-thrombin (Rattus norvegicus, UniProt P18292); experiment: Protease inhibition, Ki for rat α-thrombin (fluorogenic substrate Z-Gly-Gly-Arg-AMC); assay type: biochemical; details: for Rat alpha thrombin inhibition, slope normalized to DMSO: replicates R1-R3
# T1 construct: rat α-thrombin (Molecular Innovations) were used at final concentrations of 2 nM and 3 nM; purchased Molecular Innovations
# Protocol: as §1, §2, §3
# [1] = Passive artificial membrane permeability (PAMPA);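 on Permeability% Average: top well sample relative to theoretical equilibrium sample by TIC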
# [2] = peptide concentration 1.00E+02 uM
# [3] = peptide concentration 1.19E-05 uM
# [4] = peptide concentration 1.22E-02 uM
# [5] = peptide concentration 1.25E+01 uM
# [6] = peptide concentration 1.53E-03 uM
# [7] = peptide concentration 1.56E+00 uM
# [8] = peptide concentration 1.91E-04 uM
# [9] = peptide concentration 1.95E-01 uM
# [10] = peptide concentration 2.38E-05 uM
# [11] = peptide concentration 2.44E-02 uM
# [12] = peptide concentration 2.50E+01 uM
# [13] = peptide concentration 3.05E-03 uM
# [14] = peptide concentration 3.12E+00 uM
# [15] = peptide concentration 3.81E-04 uM
# [16] = peptide concentration 3.91E-01 uM
# [17] = peptide concentration 4.77E-05 uM
# [18] = peptide concentration 4.88E-02 uM
# [19] = peptide concentration 5.00E+01 uM
# [20] = peptide concentration 6.10E-03 uM
# [21] = peptide concentration 6.25E+00 uM
# [22] = peptide concentration 7.63E-04 uM
# [23] = peptide concentration 7.81E-01 uM
# [24] = peptide concentration 9.54E-05 uM
# [25] = peptide concentration 9.77E-02 uM
compound,measurement,setting,value
O=C1C[C@H]2CCCN2C(=O)[C@H](Cc2ccccc2)NC(=O)[C@@H](NC(=O)c2ccc(Cl)s2)CCC=CCCN1 [compound 39],pKi,"human α-thrombin; average of R1-R3, read-out: Human alpha thrombin inhibition, Ki Average",5.37
same,"Human alpha thrombin inhibition, slope normalized to DMSO",human α-thrombin; [2],7.2 and 18.3 and 14.2
same,"Human alpha thrombin inhibition, slope normalized to DMSO",human α-thrombin; [3],106.2 and 105.2 and 96.5
same,"Human alpha thrombin inhibition, slope normalized to DMSO",human α-thrombin; [4],97.4 and 143.9 and 87.6
same,"Human alpha thrombin inhibition, slope normalized to DMSO",human α-thrombin; [5],39.9 and 42.6 and 31.3
same,"Human alpha thrombin inhibition, slope normalized to DMSO",human α-thrombin; [6],107.6 and 85.1 and 100.8
same,"Human alpha thrombin inhibition, slope normalized to DMSO",human α-thrombin; [7],63.5 and 67.4 and 86.8
same,"Human alpha thrombin inhibition, slope normalized to DMSO",human α-thrombin; [8],94.4 and 101.9 and 82.4
same,"Human alpha thrombin inhibition, slope normalized to DMSO",human α-thrombin; [9],80.8 and 88.6 and 87.2
same,"Human alpha thrombin inhibition, slope normalized to DMSO",human α-thrombin; [10],104.6 and 100.1 and 103.6
same,"Human alpha thrombin inhibition, slope normalized to DMSO",human α-thrombin; [11],87.3 and 61.5 and 110.7
same,"Human alpha thrombin inhibition, slope normalized to DMSO",human α-thrombin; [12],18.7 and 30.4 and 26.6
same,"Human alpha thrombin inhibition, slope normalized to DMSO",human α-thrombin; [13],107.4 and 96.1 and 108.0
same,"Human alpha thrombin inhibition, slope normalized to DMSO",human α-thrombin; [14],66.3 and 72.5 and 68.3
same,"Human alpha thrombin inhibition, slope normalized to DMSO",human α-thrombin; [15],108.2 and 71.6 and 89.8
same,"Human alpha thrombin inhibition, slope normalized to DMSO",human α-thrombin; [16],98.6 and 87.2 and 97.0
same,"Human alpha thrombin inhibition, slope normalized to DMSO",human α-thrombin; [17],102.6 and 101.4 and 90.5
same,"Human alpha thrombin inhibition, slope normalized to DMSO",human α-thrombin; [18],86.2 and 70.0 and 72.9
same,"Human alpha thrombin inhibition, slope normalized to DMSO",human α-thrombin; [19],22.0 and 20.2 and 22.5
same,"Human alpha thrombin inhibition, slope normalized to DMSO",human α-thrombin; [20],107.1 and 94.4 and 65.9
same,"Human alpha thrombin inhibition, slope normalized to DMSO",human α-thrombin; [21],53.3 and 30.4 and 58.6
same,"Human alpha thrombin inhibition, slope normalized to DMSO",human α-thrombin; [22],101.4 and 104.3 and 107.6
same,"Human alpha thrombin inhibition, slope normalized to DMSO",human α-thrombin; [23],93.7 and 88.2 and 91.3
same,"Human alpha thrombin inhibition, slope normalized to DMSO",human α-thrombin; [24],107.7 and 104.4 and 105.3
same,"Human alpha thrombin inhibition, slope normalized to DMSO",human α-thrombin; [25],100.1 and 100.4 and 85.5
same,pIC50,"human α-thrombin; single replicates R1-R3, read-out: Human alpha thrombin inhibition, IC50",5.22 and 5.36 and 5.21
same,Ki,"human α-thrombin; single replicates R1-R3, read-out: Human alpha thrombin inhibition, Ki",4.67 µM (2×) and 3.34 µM (2×) and 4.71 µM (2×)
same,pKi,"rat α-thrombin; average of R1-R3, read-out: Rat alpha thrombin inhibition, Ki Average",5.92
same,"Rat alpha thrombin inhibition, slope normalized to DMSO",rat α-thrombin; [2],8.6 and 7.4 and 11.4
same,"Rat alpha thrombin inhibition, slope normalized to DMSO",rat α-thrombin; [3],107.5 and 103.5 and 101.6
same,"Rat alpha thrombin inhibition, slope normalized to DMSO",rat α-thrombin; [4],107.3 and 99.3 and 79.0
same,"Rat alpha thrombin inhibition, slope normalized to DMSO",rat α-thrombin; [5],23.0 and 17.3 and 19.0
same,"Rat alpha thrombin inhibition, slope normalized to DMSO",rat α-thrombin; [6],108.1 and 101.8 and 103.2
same,"Rat alpha thrombin inhibition, slope normalized to DMSO",rat α-thrombin; [7],38.0 and 68.3 and 64.4
same,"Rat alpha thrombin inhibition, slope normalized to DMSO",rat α-thrombin; [8],111.1 and 96.6 and 97.0
same,"Rat alpha thrombin inhibition, slope normalized to DMSO",rat α-thrombin; [9],80.3 and 102.2 and 95.7
same,"Rat alpha thrombin inhibition, slope normalized to DMSO",rat α-thrombin; [10],106.4 and 99.5 and 91.3
same,"Rat alpha thrombin inhibition, slope normalized to DMSO",rat α-thrombin; [11],104.4 and 97.3 and 93.2
same,"Rat alpha thrombin inhibition, slope normalized to DMSO",rat α-thrombin; [12],14.0 and 11.2 and 8.1
same,"Rat alpha thrombin inhibition, slope normalized to DMSO",rat α-thrombin; [13],71.4 and 100.8 and 98.3
same,"Rat alpha thrombin inhibition, slope normalized to DMSO",rat α-thrombin; [14],53.4 and 47.3 and 48.9
same,"Rat alpha thrombin inhibition, slope normalized to DMSO",rat α-thrombin; [15],103.9 and 95.9 and 106.5
same,"Rat alpha thrombin inhibition, slope normalized to DMSO",rat α-thrombin; [16],72.4 and 80.6 and 86.0
same,"Rat alpha thrombin inhibition, slope normalized to DMSO",rat α-thrombin; [17],110.4 and 101.0 and 101.1
same,"Rat alpha thrombin inhibition, slope normalized to DMSO",rat α-thrombin; [18],95.5 and 75.4 and 93.2
same,"Rat alpha thrombin inhibition, slope normalized to DMSO",rat α-thrombin; [19],9.4 and 9.6 and 8.3
same,"Rat alpha thrombin inhibition, slope normalized to DMSO",rat α-thrombin; [20],86.0 and 97.7 and 122.2
same,"Rat alpha thrombin inhibition, slope normalized to DMSO",rat α-thrombin; [21],35.0 and 30.8 and 29.6
same,"Rat alpha thrombin inhibition, slope normalized to DMSO",rat α-thrombin; [22],106.2 and 91.0 and 101.5
same,"Rat alpha thrombin inhibition, slope normalized to DMSO",rat α-thrombin; [23],51.1 and 75.3 and 70.4
same,"Rat alpha thrombin inhibition, slope normalized to DMSO",rat α-thrombin; [24],108.0 and 102.0 and 103.8
same,"Rat alpha thrombin inhibition, slope normalized to DMSO",rat α-thrombin; [25],101.3 and 96.8 and 84.0
same,pIC50,"rat α-thrombin; single replicates R1-R3, read-out: Rat alpha thrombin inhibition, IC50",5.87 and 5.57 and 5.61
same,Ki,"rat α-thrombin; single replicates R1-R3, read-out: Rat alpha thrombin inhibition, Ki",741 nM (2×) and 1.48 µM (2×) and 1.35 µM (2×)
same,PAMPA permeability: % permeability,"[1]; 50 μM, 12–18 h, acceptor concentration relative to equilibrium",70 ± 4%
same,Permeability% (single replicates R1–R3),"[1]; 50 μM, 13 h (Fig. 5d)",73.98% and 66.95% and 68.74%
same,Permeability% Average,"[1]; 50 μM, 13 h (Fig. 5d)",69.9%
same,Papp at 50 μM,"[1]; PAMPA, pH 7.4",11.5 ×10⁻⁶ cm/s
